Source: ChEMBL document CHEMBL1140558, “An atom efficient, solvent-free, green synthesis and antimycobacterial evaluation of 2-amino-6-methyl-4-aryl-8-[(E)-arylmethylidene]-5,6,7,8-tetrahydro-4H-pyrano[3,2-c]pyridine-3-carbonitriles” (2007)
Values after ≈ are worked out from the molar mass of the structure shown.

How the values were obtained:
[1] = test system: Mycolicibacterium smegmatis; experiment: Antimycobacterial activity against Mycobacterium smegmatis ATCC 14468 by agar dilution method; assay type: functional
[2] = test system: Mycobacterium tuberculosis; experiment: Antimycobacterial activity against Mycobacterium tuberculosis H37Rv by agar dilution method; assay type: functional

Row | SMILES | MIC [1] [µM] | MIC [2] [µM]
1 | CN1CC2=C(OC(N)=C(C#N)C2c2ccc(F)cc2)/C(=C/c2ccc(F)cc2)C1 (centres undefined) | 32 (≈ 12.5 µg/mL) | 0.97 (≈ 0.38 µg/mL)
2 | Cc1ccccc1/C=C1\CN(C)CC2=C1OC(N)=C(C#N)C2c1ccccc1C (centres undefined) | 32.6 (≈ 12.5 µg/mL) | 16.3 (≈ 6.26 µg/mL)
3 | COc1ccccc1/C=C1\CN(C)CC2=C1OC(N)=C(C#N)C2c1ccccc1OC (centres undefined) | 30.1 (≈ 12.5 µg/mL) | 15.1 (≈ 6.26 µg/mL)
4 | CN1CC2=C(OC(N)=C(C#N)C2c2ccccc2)/C(=C/c2ccccc2)C1 (centres undefined) | 70.4 (≈ 25 µg/mL) | 35.2 (≈ 12.5 µg/mL)
5 | CN1CC2=C(OC(N)=C(C#N)C2c2cccc(F)c2)/C(=C/c2cccc(F)c2)C1 (centres undefined) | 32 (≈ 12.5 µg/mL) | 0.99 (≈ 0.388 µg/mL)
6 | CN1CC2=C(OC(N)=C(C#N)C2c2ccc(Cl)cc2Cl)/C(=C/c2ccc(Cl)cc2Cl)C1 (centres undefined) | 50.7 (≈ 25 µg/mL) | 25.4 (≈ 12.5 µg/mL)
7 | CN1CC2=C(OC(N)=C(C#N)C2c2ccc(N(C)C)cc2)/C(=C/c2ccc(N(C)C)cc2)C1 (centres undefined) | 28.3 (≈ 12.5 µg/mL) | 0.43 (≈ 0.19 µg/mL)
8 | CN1CC2=C(OC(N)=C(C#N)C2/C=C/c2ccccc2)/C(=C/C=C/c2ccccc2)C1 (centres undefined) | 30.7 (≈ 12.5 µg/mL) | 30.7 (≈ 12.5 µg/mL)
9 | COc1ccc(/C=C2\CN(C)CC3=C2OC(N)=C(C#N)C3c2ccc(OC)cc2)cc1 (centres undefined) | 60.2 (≈ 25 µg/mL) | 30.1 (≈ 12.5 µg/mL)
10 | CN1CC2=C(OC(N)=C(C#N)C2c2cccs2)/C(=C/c2cccs2)C1 (centres undefined) | 34.1 (≈ 12.5 µg/mL) | 68.1 (≈ 25 µg/mL)
11 | Cc1ccc(/C=C2\CN(C)CC3=C2OC(N)=C(C#N)C3c2ccc(C)cc2)cc1 (centres undefined) | 65.3 (≈ 25 µg/mL) | 16.3 (≈ 6.26 µg/mL)
12 | CN1CC2=C(OC(N)=C(C#N)C2c2ccccc2Cl)/C(=C/c2ccccc2Cl)C1 (centres undefined) | 59 (≈ 25 µg/mL) | 1.84 (≈ 0.781 µg/mL)
13 | CN1CC2=C(OC(N)=C(C#N)C2c2cccc([N+](=O)[O-])c2)/C(=C/c2cccc([N+](=O)[O-])c2)C1 (centres undefined) | 56.2 (≈ 25 µg/mL) | 1.75 (≈ 0.78 µg/mL)
14 | CN1CC2=C(OC(N)=C(C#N)C2c2ccco2)/C(=C/c2ccco2)C1 (centres undefined) | 37.3 (≈ 12.5 µg/mL) | 37.3 (≈ 12.5 µg/mL)
15 | CN1CC2=C(OC(N)=C(C#N)C2c2ccc(Cl)cc2)/C(=C/c2ccc(Cl)cc2)C1 (centres undefined) | 3.68 (≈ 1.56 µg/mL) | 0.92 (≈ 0.39 µg/mL)
16 | COc1c(N2CCNC(C)C2)c(F)cc2c(=O)c(C(=O)O)cn(C3CC3)c12 (centres undefined) [GATIFLOXACIN] | 2.08 (≈ 0.781 µg/mL) | 2.08 (≈ 0.781 µg/mL)
17 | NNC(=O)c1ccncc1 [ISONIAZID] | 45.6 (≈ 6.25 µg/mL) | 0.36 (≈ 0.0494 µg/mL)
